Assays:
[1] = Available chlorine concentration after impregnating diluent in treatment sheet; format: physicochemical
Description: (1) The available chlorine concentration of the “chlorous acid aqueous solution formulation (see Example 1: Table 11)” was measured, and the formulation was diluted to an available chlorine concentration of 1000 ppm [chlorous acid (HClO2) concentration: 489 ppm] or 500 ppm [chlorous acid (HClO2) concentration: 245 ppm]. (2) The available chlorine concentration of sodium hypochlorite was measured, and the sodium hypochlorite was diluted to an available chlorine concentration of 1000 ppm or 500 ppm. (3) The available chlorine concentration of the diluted solution was measured to find the available chlorine concentration prior to contact with a treatment sheet. (4) Treatment sheets were stacked, rolled up and inserted into a 200 ml-capacity PET bottle. A solution diluted so that the weight ratio of treatment sheet: agent solution would be 1:3 was poured into the 200 ml-capacity PET bottle containing the treatment sheets. (5) After contact with treatment sheets, treatment sheets were pulled out from the 200 ml-capacity PET bottle immediately after contact, after 1 hour, after 2 hours, after 3 hours, after 12 hours, after 24 hours, after 48 hours (after 2 days), after 72 hours (after 3 days), and after 168 hours (after 7 days). The sheets were used as specimens for examining available chlorine concentrations. (6) Solutions from the treatment sheets, the specimens pulled out from the 200 ml-capacity PET bottle, were wrung out into a 100 mL beaker. The available chlorine concentration of the solution was measured.
1. About 5 g of solution that was wrung out from the specimen was collected in a triangular flask with a stopper. 2. After adding 10 mL of 10 w/w % potassium iodide to the triangular flask with a stopper, 10 mL of 10% sulfuric acid was added. 3. After sealing, the mixture was left standing for 15 minutes in the dark. 4. 0.1 mol/L sodium thiosulfate solution was added until the color became light yellow. About 1 mL of 1 w/w % starch solution was added, and 0.1 mol/L sodium thiosulfate solution was added until the color of the solution became colorless. 5. Chlorine titer was found by the following equation.
R; Chlorine titer value a; Amount of 0.1 mol/L sodium thiosulfate solution added (g) f; Factor of 0.1 mol/L sodium thiosulfate solution w; Weight of measured specimen solution (g) 0.0035; Amount of chlorine corresponding to 1 g of 0.1 mol/L sodium thiosulfate 100; Percentage

[2] = tested on: E. coli: Escherichia coli IF03927; experiment: Sterilizing effect on floor surface after wiping off imitation vomit, tatami mattress; format: cell-based; details: 1000 ppm available chlorine
Text: (§1) 1) Chlorous acid aqueous solution formulation (see Example 1: Table 11) Treatment sheet (material: 100% cotton): (about 27×40 cm) *Impregnated at a ratio of weight of treatment sheet (g): amount of liquid (ml)=1:3 2) Imitation vomit Miso solution: adjusted to pH of 2 with hydrochloric acid 3) Test Microbes that were Used E. coli: Escherichia coli IF03927 Staphylococcus aureus: Staphylococcus aureus IF0 12732 Thermoduric Microbes (Bacillus cereus): Bacillus cereus NBRC15305 Microbes of the genus Salmonella: Salmonella Enteritidis IF03313 Enterohemorrhagic Escherichia coli O157: Escherichia coli O157 Enterohemorrhagic Escherichia coli O111: Escherichia coli O111 Enterohemorrhagic Escherichia coli O26: Escherichia coli O26
(§2) (1) Imitation vomit was spread in an area about the size of an A4 sheet. (2) 5 dry sheets were laid thereon. (3) An agent solution was poured on the dry sheets to wipe off the imitation vomit. (4) A cotton swab was soaked with sterile saline. A portion where imitation vomit was spread was scrubbed with the cotton swab to collect microbes remaining on the floor. After suspending in saline, the solution was spread on a petri dish and cultured. The number of each of the microbes was measured. (5) Test operations 3 and 4 were repeated a total of 7 times (repeated until the imitation vomit could be removed completely).

[3] = tested on: Staphylococcus aureus IF0 12732; experiment: as above; format: cell-based; details: 1000 ppm available chlorine
Text: as §1, §2

[4] = tested on: Microbes of the genus Salmonella: Salmonella Enteritidis IF03313; experiment: as above; format: cell-based; details: 1000 ppm available chlorine
Text: as §1, §2

[5] = tested on: Enterohemorrhagic Escherichia coli O157; experiment: as above; format: cell-based; details: 1000 ppm available chlorine
Text: as §1, §2

[6] = tested on: Enterohemorrhagic Escherichia coli O26; experiment: as above; format: cell-based; details: 1000 ppm available chlorine
Text: as §1, §2

[7] = tested on: Bacillus cereus NBRC15305; experiment: as above; format: cell-based; details: 1000 ppm available chlorine
Text: as §1, §2

[8] = tested on: Enterohemorrhagic Escherichia coli O111; experiment: as above; format: cell-based; details: 1000 ppm
Text: as §1, §2

With `OCl` [Sodium Hypochlorite, sodium hypochlorite] as the compound, how does the “Available Chlorine Concentration” value ([1]; set concentration 500, 1 hour of contact) read?
Its value is 175 ppm.

And the “Available Chlorine Concentration” value ([1]; set concentration 500, 2 hours of contact)?
Its value is 168 ppm.

What about the “Available Chlorine Concentration” value ([1]; set concentration 500, 3 hours of contact) of the same compound?
The value was 144 ppm.

And the “Available Chlorine Concentration” value ([1]; set concentration 500, 12 hours of contact)?
Its value is 91 ppm.

And the “Available Chlorine Concentration” value ([1]; set concentration 500, 24 hours of contact)?
The value was 68 ppm.

And the “Available Chlorine Concentration” value ([1]; set concentration 500, 48 hours of contact)?
The value was 39 ppm.

And the “Available Chlorine Concentration” value ([1]; set concentration 500, 72 hours of contact)?
Its value is 39 ppm.

What about the “Available Chlorine Concentration” value ([1]; set concentration 500, 168 hours of contact) of the same compound?
Its value is 37 ppm.

What about the “Available Chlorine Concentration” value ([1]; set concentration 500, 504 hours of contact) of the same compound?
Its value is 32 ppm.

And the “Available Chlorine Concentration” value ([1]; set concentration 500, 720 hours of contact)?
Its value is 20 ppm.

And the “Available Chlorine Concentration” value ([1]; set concentration 500, before contact with treatment sheet)?
Its value is 549 ppm.

What about the “Available Chlorine Concentration” value ([1]; set concentration 500, immediately after contact) of the same compound?
Its value is 352 ppm.

And the “Available Chlorine Concentration” value ([1]; set concentration 1000, 1 hour of contact)?
Its value is 631 ppm.

What about the “Available Chlorine Concentration” value ([1]; set concentration 1000, 2 hours of contact) of the same compound?
Its value is 595 ppm.

And the “Available Chlorine Concentration” value ([1]; set concentration 1000, 3 hours of contact)?
The value was 515 ppm.

What about the “Available Chlorine Concentration” value ([1]; set concentration 1000, 12 hours of contact) of the same compound?
Its value is 184 ppm.

What about the “Available Chlorine Concentration” value ([1]; set concentration 1000, 24 hours of contact) of the same compound?
The value was 89 ppm.

And the “Available Chlorine Concentration” value ([1]; set concentration 1000, 48 hours of contact)?
The value was 76 ppm.

And the “Available Chlorine Concentration” value ([1]; set concentration 1000, 72 hours of contact)?
The value was 54 ppm.

And the “Available Chlorine Concentration” value ([1]; set concentration 1000, 168 hours of contact)?
Its value is 40 ppm.

And the “Available Chlorine Concentration” value ([1]; set concentration 1000, 504 hours of contact)?
Its value is 34 ppm.

What about the “Available Chlorine Concentration” value ([1]; set concentration 1000, 720 hours of contact) of the same compound?
The value was 24 ppm.

And the “Available Chlorine Concentration” value ([1]; set concentration 1000, before contact with treatment sheet)?
The value was 1045 ppm.

And the “Available Chlorine Concentration” value ([1]; set concentration 1000, immediately after contact)?
Its value is 690 ppm.

What about the “microbes remaining, wiped 1 Time” value ([2]; stored at 25° C. Day 0) of the same compound?
The value was under 10.

And the “microbes remaining, wiped 2 Times” value ([2]; stored at 25° C. Day 0)?
Its value is under 10.

And the “microbes remaining, wiped 3 Times” value ([2]; stored at 25° C. Day 0)?
The value was under 10.

What about the “microbes remaining, wiped 1 Time” value ([2]; stored at 25° C. Day 7) of the same compound?
The value was under 10.

What about the “microbes remaining, wiped 2 Times” value ([2]; stored at 25° C. Day 7) of the same compound?
Its value is under 10.

What about the “microbes remaining, wiped 3 Times” value ([2]; stored at 25° C. Day 7) of the same compound?
Its value is under 10.

And the “microbes remaining, wiped 1 Time” value ([3]; stored at 25° C. Day 0)?
Its value is under 10.

And the “microbes remaining, wiped 2 Times” value ([3]; stored at 25° C. Day 0)?
The value was under 10.

And the “microbes remaining, wiped 3 Times” value ([3]; stored at 25° C. Day 0)?
Its value is under 10.

What about the “microbes remaining, wiped 1 Time” value ([3]; stored at 25° C. Day 7) of the same compound?
The value was under 10.

What about the “microbes remaining, wiped 2 Times” value ([3]; stored at 25° C. Day 7) of the same compound?
The value was under 10.

What about the “microbes remaining, wiped 3 Times” value ([3]; stored at 25° C. Day 7) of the same compound?
The value was under 10.

And the “microbes remaining, wiped 1 Time” value ([4]; stored at 25° C. Day 0)?
Its value is under 10.

What about the “microbes remaining, wiped 2 Times” value ([4]; stored at 25° C. Day 0) of the same compound?
The value was under 10.

What about the “microbes remaining, wiped 3 Times” value ([4]; stored at 25° C. Day 0) of the same compound?
Its value is under 10.

What about the “microbes remaining, wiped 1 Time” value ([4]; stored at 25° C. Day 7) of the same compound?
Its value is 1.5 × 10^3.

And the “microbes remaining, wiped 2 Times” value ([4]; stored at 25° C. Day 7)?
The value was 7.7 × 10^2.

What about the “microbes remaining, wiped 3 Times” value ([4]; stored at 25° C. Day 7) of the same compound?
The value was 1.8 × 10^2.

What about the “Number of Times Wiped 1 Time (remaining microbes)” value ([5]; stored at 25° C. Day 0) of the same compound?
Its value is under 10.

And the “Number of Times Wiped 2 Times (remaining microbes)” value ([5]; stored at 25° C. Day 0)?
The value was under 10.

What about the “Number of Times Wiped 3 Times (remaining microbes)” value ([5]; stored at 25° C. Day 0) of the same compound?
The value was under 10.

And the “Number of Times Wiped 1 Time (remaining microbes)” value ([5]; stored at 25° C. Day 7)?
Its value is under 10.

What about the “Number of Times Wiped 2 Times (remaining microbes)” value ([5]; stored at 25° C. Day 7) of the same compound?
Its value is under 10.

And the “Number of Times Wiped 3 Times (remaining microbes)” value ([5]; stored at 25° C. Day 7)?
The value was under 10.

What about the “Number of Times Wiped 1 Time (remaining microbes)” value ([6]; stored at 25° C. Day 0) of the same compound?
The value was under 10.

And the “Number of Times Wiped 2 Times (remaining microbes)” value ([6]; stored at 25° C. Day 0)?
The value was under 10.

And the “Number of Times Wiped 3 Times (remaining microbes)” value ([6]; stored at 25° C. Day 0)?
The value was under 10.

And the “Number of Times Wiped 1 Time (remaining microbes)” value ([6]; stored at 25° C. Day 7)?
The value was 8.8 × 10^3.

And the “Number of Times Wiped 2 Times (remaining microbes)” value ([6]; stored at 25° C. Day 7)?
Its value is 4.9 × 10^3.

And the “Number of Times Wiped 3 Times (remaining microbes)” value ([6]; stored at 25° C. Day 7)?
Its value is 3.0 × 10^3.

What about the “microbes remaining, wiped 1 Time” value ([7]; stored at 25° C. Day 0) of the same compound?
Its value is under 10.

What about the “microbes remaining, wiped 2 Times” value ([7]; stored at 25° C. Day 0) of the same compound?
Its value is under 10.

What about the “microbes remaining, wiped 3 Times” value ([7]; stored at 25° C. Day 0) of the same compound?
The value was under 10.

And the “microbes remaining, wiped 1 Time” value ([7]; stored at 25° C. Day 7)?
Its value is under 10.

What about the “microbes remaining, wiped 2 Times” value ([7]; stored at 25° C. Day 7) of the same compound?
The value was under 10.

What about the “microbes remaining, wiped 3 Times” value ([7]; stored at 25° C. Day 7) of the same compound?
Its value is under 10.

And the “Number of Times Wiped 1 Time (remaining microbes)” value ([8]; stored at 25° C. Day 0)?
The value was under 10.

And the “Number of Times Wiped 2 Times (remaining microbes)” value ([8]; stored at 25° C. Day 0)?
Its value is under 10.

And the “Number of Times Wiped 3 Times (remaining microbes)” value ([8]; stored at 25° C. Day 0)?
The value was under 10.

What about the “Number of Times Wiped 1 Time (remaining microbes)” value ([8]; stored at 25° C. Day 7) of the same compound?
Its value is under 10.

And the “Number of Times Wiped 2 Times (remaining microbes)” value ([8]; stored at 25° C. Day 7)?
The value was under 10.

What about the “Number of Times Wiped 3 Times (remaining microbes)” value ([8]; stored at 25° C. Day 7) of the same compound?
The value was under 10.

From US20170015555A1, “LONG-TERM PRESERVATION AND NOVEL APPLICATION OF CHLOROUS ACID AQUEOUS SOLUTION FORMULATION” (priority 2013, published 2017)
